Assay results taken from ChEMBL document CHEMBL4387721, “Proteolysis targeting chimeras (PROTACs) in 'beyond rule-of-five' chemical space: Recent progress and future challenges” (Bioorg Med Chem Lett, 2019).

Legend:
Format in all cases: cell-based
[1] = biological target: T1, von Hippel-Lindau disease tumor suppressor/Receptor-type tyrosine-protein kinase FLT3 (Homo sapiens, UniProt P36888+P40337); assay: Protac activity at VHL/FLT3 in human MOLM14 cells assessed as induction of FLT3 protein degradation measured after 4 hrs by immunoblot analysis
[2] = biological target: T1, von Hippel-Lindau disease tumor suppressor/Receptor-type tyrosine-protein kinase FLT3; assay: Protac activity at VHL/FLT3 in human MOLM14 cells assessed as induction of FLT3 protein degradation at 50 nM measured after 4 hrs by immunoblot analysis relative to control
Target sequence in this assay (P36888 27-993 limits assumed): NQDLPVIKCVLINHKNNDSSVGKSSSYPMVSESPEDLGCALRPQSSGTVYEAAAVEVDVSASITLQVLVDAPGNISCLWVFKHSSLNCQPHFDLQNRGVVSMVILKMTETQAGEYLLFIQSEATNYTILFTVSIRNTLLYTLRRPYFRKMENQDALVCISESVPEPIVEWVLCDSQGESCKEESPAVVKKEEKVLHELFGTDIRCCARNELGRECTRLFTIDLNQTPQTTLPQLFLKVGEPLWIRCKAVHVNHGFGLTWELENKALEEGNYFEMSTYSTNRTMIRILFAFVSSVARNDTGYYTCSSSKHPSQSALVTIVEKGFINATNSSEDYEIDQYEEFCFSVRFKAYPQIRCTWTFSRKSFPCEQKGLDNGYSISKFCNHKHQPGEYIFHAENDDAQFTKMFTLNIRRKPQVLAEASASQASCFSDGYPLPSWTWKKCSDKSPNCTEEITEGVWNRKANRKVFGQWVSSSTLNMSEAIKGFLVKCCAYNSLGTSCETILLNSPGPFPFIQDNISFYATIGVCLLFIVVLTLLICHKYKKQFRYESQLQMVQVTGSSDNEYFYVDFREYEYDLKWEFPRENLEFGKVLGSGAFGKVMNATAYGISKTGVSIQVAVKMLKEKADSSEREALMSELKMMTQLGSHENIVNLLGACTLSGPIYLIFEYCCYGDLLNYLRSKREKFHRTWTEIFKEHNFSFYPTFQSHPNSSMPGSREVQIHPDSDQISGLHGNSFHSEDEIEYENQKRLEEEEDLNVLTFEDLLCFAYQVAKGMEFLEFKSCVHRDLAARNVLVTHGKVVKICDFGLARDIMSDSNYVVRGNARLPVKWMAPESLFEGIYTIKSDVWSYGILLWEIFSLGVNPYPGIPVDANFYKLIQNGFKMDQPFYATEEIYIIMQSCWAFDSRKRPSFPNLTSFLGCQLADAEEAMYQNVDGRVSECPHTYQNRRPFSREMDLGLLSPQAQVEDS
Target sequence in this assay (P40337 whole entry partner): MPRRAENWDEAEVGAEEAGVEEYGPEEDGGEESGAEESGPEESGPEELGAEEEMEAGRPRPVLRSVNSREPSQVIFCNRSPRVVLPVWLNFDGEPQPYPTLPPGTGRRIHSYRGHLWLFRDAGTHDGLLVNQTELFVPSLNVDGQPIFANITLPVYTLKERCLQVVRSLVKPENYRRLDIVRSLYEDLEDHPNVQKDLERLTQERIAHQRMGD

[3] = Protac activity at CRBN/FKBP12 F36V mutant (unknown origin) expressed in human 293FT cells assessed as induction of FKBP12 F36V mutant protein degradation incubated for 4 hrs by Western blot analysis
[4] = organism: Homo sapiens; assay: Protac activity at CRBN/FKBP12 F36V mutant (unknown origin) expressed in human 293FT cells assessed as induction of FKBP12 F36V mutant protein degradation incubated for 4 hrs by Western blot analysis relative to control
[5] = biological target: T2, Protein cereblon/Tyrosine-protein kinase BTK (Homo sapiens, UniProt Q06187+Q96SW2, C481S); assay: Protac activity at CRBN/BTK C481S mutant in human MCL cells assessed as induction of BTK C481S mutant degradation
T2 sequence (Q06187 2-659 C481S limits assumed, stated change not applied): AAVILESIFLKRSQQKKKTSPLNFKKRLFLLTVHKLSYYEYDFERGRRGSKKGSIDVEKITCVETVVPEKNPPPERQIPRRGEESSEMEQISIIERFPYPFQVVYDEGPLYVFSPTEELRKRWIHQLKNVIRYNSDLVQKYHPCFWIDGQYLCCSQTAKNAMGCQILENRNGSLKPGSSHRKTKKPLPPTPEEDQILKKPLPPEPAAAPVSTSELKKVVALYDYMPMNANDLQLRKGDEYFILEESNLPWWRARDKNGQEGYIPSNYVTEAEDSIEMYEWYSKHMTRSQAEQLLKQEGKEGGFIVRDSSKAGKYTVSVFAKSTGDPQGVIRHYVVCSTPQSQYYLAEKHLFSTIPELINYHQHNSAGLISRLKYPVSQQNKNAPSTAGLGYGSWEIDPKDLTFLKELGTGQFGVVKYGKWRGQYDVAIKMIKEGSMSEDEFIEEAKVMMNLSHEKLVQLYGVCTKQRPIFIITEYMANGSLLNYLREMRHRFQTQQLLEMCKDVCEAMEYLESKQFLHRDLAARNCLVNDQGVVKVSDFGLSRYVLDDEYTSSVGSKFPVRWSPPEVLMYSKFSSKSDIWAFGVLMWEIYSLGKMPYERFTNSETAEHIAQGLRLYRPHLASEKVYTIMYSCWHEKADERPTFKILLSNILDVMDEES
T2 sequence (Q96SW2 whole entry, stated change not applied): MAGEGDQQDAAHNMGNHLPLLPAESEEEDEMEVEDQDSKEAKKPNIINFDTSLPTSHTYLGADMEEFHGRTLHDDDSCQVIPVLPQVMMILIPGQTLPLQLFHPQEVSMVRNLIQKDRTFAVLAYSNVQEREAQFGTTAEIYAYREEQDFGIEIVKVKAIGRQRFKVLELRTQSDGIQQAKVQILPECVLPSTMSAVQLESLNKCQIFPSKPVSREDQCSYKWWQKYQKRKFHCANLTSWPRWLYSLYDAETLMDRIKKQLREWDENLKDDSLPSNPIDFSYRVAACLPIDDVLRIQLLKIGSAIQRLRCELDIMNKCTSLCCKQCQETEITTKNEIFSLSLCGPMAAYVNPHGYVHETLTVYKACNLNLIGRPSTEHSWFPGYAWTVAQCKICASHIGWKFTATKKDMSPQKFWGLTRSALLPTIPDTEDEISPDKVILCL

[6] = tested on: Protein cereblon/Tyrosine-protein kinase BTK (Homo sapiens), Q06187+Q96SW2 [C481S]; assay: Protac activity at CRBN/BTK C481S mutant in human MM cells assessed as induction of BTK C481S mutant protein degradation at 500 nM relative to control
[7] = tested on: Protein cereblon/Tyrosine-protein kinase BTK (Homo sapiens), Q06187+Q96SW2 [C481S]; assay: Protac activity at CRBN/BTK C481S mutant in human MCL cells assessed as induction of BTK C481S mutant degradation at 500 nM relative to control
[8] = biological target: T2, Protein cereblon/Tyrosine-protein kinase BTK; assay: Protac activity at CRBN/BTK C481S mutant in human MM cells assessed as induction of BTK C481S mutant protein degradation
[9] = biological target: Protein cereblon/Cyclin-dependent kinase 9 (Homo sapiens, UniProt P50750+Q96SW2); assay: Protac activity at CRBN/CDK9 in human HCT116 cells assessed as induction of CDK9 protein degradation at 20 uM after 6 hrs by Western blot analysis relative to control
[10] = biological target: von Hippel-Lindau disease tumor suppressor/Bromodomain-containing protein 4 (Homo sapiens, UniProt O60885+P40337); assay: Protac activity at VHL/BRD4 in human HeLa cells assessed as induction of BRD4 protein degradation at 50 nM up to 36 hrs by Western blot analysis relative to control
von Hippel-Lindau disease tumor suppressor/Bromodomain-containing protein 4, sequence (P40337 whole entry, looked up, other chains not shown): as the sequence (P40337 whole entry partner) above

[11] = biological target: T3, E3 ubiquitin-protein ligase XIAP/Tyrosine-protein kinase ABL1/Breakpoint cluster region protein (Homo sapiens, UniProt P00519+P98170+P11274); assay: Protac activity at BCR-ABL/XIAP in human K562 cells assessed as induction of ABL protein degradation after 6 hrs by Western blot analysis
[12] = biological target: T3, E3 ubiquitin-protein ligase XIAP/Tyrosine-protein kinase ABL1/Breakpoint cluster region protein; assay: Protac activity at BCR-ABL/XIAP in human K562 cells assessed as induction of ABL protein degradation at 100 nM after 6 hrs by Western blot analysis relative to control
[13] = biological target: T4, Estrogen receptor/E3 ubiquitin-protein ligase XIAP (Homo sapiens, UniProt P03372+P98170); assay: Protac activity at ERalpha/XIAP in human MCF7 cells assessed as induction of ERalpha degradation after 4 hrs by Western blot analysis
[14] = biological target: T4, Estrogen receptor/E3 ubiquitin-protein ligase XIAP; assay: Protac activity at ERalpha/XIAP in human MCF7 cells assessed as induction of ERalpha degradation at 100 nM by Western blot analysis relative to control
[15] = biological target: T5, von Hippel-Lindau disease tumor suppressor/Steroid hormone receptor ERR1 (Homo sapiens, UniProt P11474+P40337); assay: Protac activity at VHL/ERRalpha in epoxomicin pre-treated human MCF7 cells assessed as induction of ERRalpha protein degradation incubated for 8 hrs by Western blot analysis
[16] = biological target: T5, von Hippel-Lindau disease tumor suppressor/Steroid hormone receptor ERR1; assay: Protac activity at VHL/ERRalpha in epoxomicin pre-treated human MCF7 cells assessed as induction of ERRalpha protein degradation at 1 uM incubated for 8 hrs by Western blot analysis relative to control
Target sequence in this assay (P11474 whole entry, looked up): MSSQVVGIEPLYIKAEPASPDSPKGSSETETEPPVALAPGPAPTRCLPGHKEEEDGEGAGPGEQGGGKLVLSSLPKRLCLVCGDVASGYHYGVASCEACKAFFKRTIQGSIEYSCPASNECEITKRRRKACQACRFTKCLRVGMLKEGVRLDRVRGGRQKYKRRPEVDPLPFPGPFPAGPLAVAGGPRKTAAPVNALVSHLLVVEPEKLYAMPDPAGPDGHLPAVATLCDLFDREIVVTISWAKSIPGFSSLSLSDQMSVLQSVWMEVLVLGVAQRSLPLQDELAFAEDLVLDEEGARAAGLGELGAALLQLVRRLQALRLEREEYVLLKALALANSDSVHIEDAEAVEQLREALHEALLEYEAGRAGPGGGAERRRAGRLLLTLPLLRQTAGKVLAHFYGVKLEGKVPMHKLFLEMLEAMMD
Target sequence in this assay (P40337 whole entry, looked up): as the sequence (P40337 whole entry partner) above

[17] = biological target: T6, BRD4/E3 ubiquitin-protein ligase Mdm2 (Homo sapiens, UniProt Q00987+O60885); assay: Protac activity at BRD4/MDM2 in human HCT116 cells assessed as induction of BRD4 degradation at after 24 hrs by immunoblotting analysis
T6 sequence (Q00987 whole entry, looked up, other chains not shown): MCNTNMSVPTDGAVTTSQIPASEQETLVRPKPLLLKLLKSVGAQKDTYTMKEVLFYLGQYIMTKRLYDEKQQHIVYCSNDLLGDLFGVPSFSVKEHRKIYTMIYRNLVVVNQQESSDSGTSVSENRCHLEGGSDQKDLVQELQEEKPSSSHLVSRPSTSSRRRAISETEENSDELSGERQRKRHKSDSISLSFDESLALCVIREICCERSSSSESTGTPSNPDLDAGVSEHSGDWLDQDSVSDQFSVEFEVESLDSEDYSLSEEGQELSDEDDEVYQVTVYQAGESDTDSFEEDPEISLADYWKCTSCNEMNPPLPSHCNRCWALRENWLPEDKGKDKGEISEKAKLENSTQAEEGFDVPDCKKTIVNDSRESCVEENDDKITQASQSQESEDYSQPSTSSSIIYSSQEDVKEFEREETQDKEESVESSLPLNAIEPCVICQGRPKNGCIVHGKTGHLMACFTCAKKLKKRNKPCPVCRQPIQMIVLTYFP

[18] = biological target: T6, BRD4/E3 ubiquitin-protein ligase Mdm2; assay: Protac activity at BRD4/MDM2 in human HCT116 cells assessed as induction of BRD4 degradation at 100 nM after 24 hrs by immunoblotting analysis relative to control
[19] = biological target: Protein cereblon/Histone acetyltransferase KAT2A (Homo sapiens) (UniProt Q92830+Q96SW2); assay: Protac activity at CRBN/GCN5 in human THP1 cells assessed as induction of GCN5 protein degradation at 1 nM incubated for 18 hrs by Western blot analysis relative to control
[20] = biological target: Protein cereblon/Histone acetyltransferase KAT2B (Homo sapiens) (UniProt Q92831+Q96SW2); assay: Protac activity at CRBN/PCAF in human THP1 cells assessed as induction of PCAF protein degradation incubated for 18 hrs by Western blot analysis relative to control
Protein cereblon/Histone acetyltransferase KAT2B (Homo sapiens), sequence (Q92831 whole entry, looked up): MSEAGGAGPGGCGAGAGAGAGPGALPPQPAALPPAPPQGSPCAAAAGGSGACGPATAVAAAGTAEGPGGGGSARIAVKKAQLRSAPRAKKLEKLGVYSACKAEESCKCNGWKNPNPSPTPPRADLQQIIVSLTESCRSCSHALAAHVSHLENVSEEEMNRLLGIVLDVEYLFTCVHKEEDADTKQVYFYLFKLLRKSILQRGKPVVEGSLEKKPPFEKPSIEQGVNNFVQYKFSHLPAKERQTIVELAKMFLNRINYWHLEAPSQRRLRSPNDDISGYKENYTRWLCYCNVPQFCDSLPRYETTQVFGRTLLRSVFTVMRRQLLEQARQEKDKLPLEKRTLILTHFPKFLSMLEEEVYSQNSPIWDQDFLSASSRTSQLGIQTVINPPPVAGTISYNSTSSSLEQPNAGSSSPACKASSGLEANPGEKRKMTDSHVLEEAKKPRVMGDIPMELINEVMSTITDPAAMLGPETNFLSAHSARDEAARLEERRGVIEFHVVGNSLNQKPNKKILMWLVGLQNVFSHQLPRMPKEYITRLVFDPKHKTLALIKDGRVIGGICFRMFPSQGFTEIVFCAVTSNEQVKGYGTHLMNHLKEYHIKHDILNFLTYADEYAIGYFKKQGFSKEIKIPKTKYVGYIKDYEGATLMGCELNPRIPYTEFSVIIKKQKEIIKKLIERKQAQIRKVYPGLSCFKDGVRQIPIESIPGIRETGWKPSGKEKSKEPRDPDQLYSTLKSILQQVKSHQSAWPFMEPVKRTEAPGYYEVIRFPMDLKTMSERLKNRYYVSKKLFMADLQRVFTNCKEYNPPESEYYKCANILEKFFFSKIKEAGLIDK
Protein cereblon/Histone acetyltransferase KAT2B (Homo sapiens), sequence (Q96SW2 whole entry, looked up): as the sequence (Q96SW2 whole entry, stated change not applied) above

For Cc1ncsc1-c1ccc(CNC(=O)[C@@H]2C[C@@H](O)CN2C(=O)[C@@H](NC(=O)CCOCCOCCOc2ccc3c(c2)sc2nc(-c4ccc(NC(=O)Nc5cc(C(C)(C)C)on5)cc4)cn23)C(C)(C)C)cc1, the DC50 [1] was less than 5 nM and the Emax [2] was greater than 90%.

In the case of CC[C@H](C(=O)N1CCCC[C@H]1C(=O)O[C@H](CCc1ccc(OC)c(OC)c1)c1ccccc1OCC(=O)NCCCCCCOc1cccc2c1C(=O)N(C1CCC(=O)NC1=O)C2=O)c1cc(OC)c(OC)c(OC)c1 (stereo not given in full), the DC50 [3] was less than 100 nM and the Emax [4] was 82%.

Molecule Nc1ncnc2c1c(-c1ccc(Oc3ccccc3)cc1)nn2[C@@H]1CCCN(C(=O)c2cn(CCOCCOCCOCCNc3cccc4c3C(=O)N(C3CCC(=O)NC3=O)C4=O)nn2)C1 (stereo not given in full) has a DC50 [5] greater than 6 nM, an Emax [6] greater than 94% and an Emax [7] greater than 94%. The DC50 [8] was less than 12 nM.

With O=C1CCC(N2C(=O)c3cccc(OCCCCCOc4ccc(CC(=O)Nc5cc(C6CCC6)[nH]n5)cc4)c3C2=O)C(=O)N1 (stereo not given) the Emax [9] was greater than 65%.

In the case of Cc1ncsc1-c1ccc(CNC(=O)[C@@H]2C[C@@H](O)CN2C(=O)[C@@H](NC(=O)COCCOCCOCCNC(=O)C[C@@H]2N=C(c3ccc(Cl)cc3)c3c(sc(C)c3C)-n3c(C)nnc32)C(C)(C)C)cc1, the Emax [10] was greater than 96%.

With CN[C@@H](C)C(=O)N[C@H](C(=O)N1CCC[C@H]1c1nc(C(=O)c2cccc(OCCOCCOCCOCC(=O)N3CCN(c4cc(Nc5ncc(C(=O)Nc6c(C)cccc6Cl)s5)nc(C)n4)CC3)c2)cs1)C1CCCCC1 the DC50 [11] was 3 to 10 nM and the Emax [12] was greater than 90%.

With CC/C(=C(\c1ccc(O)cc1)c1ccc(OCCN(C)C(=O)COCCOCCOCCOc2cccc(O[C@H]3C[C@@H](C(=O)N[C@@H]4CCCc5ccccc54)N(C(=O)[C@@H](NC(=O)[C@H](C)NC)C4CCCCC4)C3)c2)cc1)c1ccccc1 the DC50 [13] was less than 3 nM and the Emax [14] was 80%.

COc1cc(/C=C2\SC(=O)N(CCOCCC(=O)N[C@H](C(=O)N3C[C@H](O)C[C@H]3C(=O)NCc3ccc(-c4scnc4C)cc3)C(C)(C)C)C2=O)ccc1Oc1ccc(C#N)cc1C(F)(F)F gave a DC50 [15] of 100 nM and an Emax [16] of 86%.

Molecule COc1cc(C(=O)NCCOCCOCCOCCNC(=O)C[C@@H]2N=C(c3ccc(Cl)cc3)c3c(sc(C)c3C)-n3c(C)nnc32)ccc1NC(=O)[C@@H]1N[C@@H](CC(C)(C)C)[C@](C#N)(c2ccc(Cl)cc2F)[C@H]1c1cccc(Cl)c1F has a DC50 [17] of 32 nM and an Emax [18] of 98%.

CN1C[C@H](Nc2cnn(C)c(=O)c2Br)C[C@H](c2ccc(C(=O)N(C)CCCN(C)c3ccc(CCCOc4cccc5c4C(=O)N(C4CCC(=O)NC4=O)C5=O)cc3)cc2)C1 (stereo not given in full) gave an Emax [19] of 81% and an Emax [20] of 97%.
